How the values were obtained:
Test in all cases: relative viability (nuclei count vs DMSO), 5 days (fraction); higher = more cells survive
[1] = compound: O[C@H]1CC[C@H](Nc2ncc3nc(Nc4c(F)cc(F)cc4F)n([C@H]4CCOC4)c3n2)CC1 [Tanzisertib] + NC(=O)Nc1cc(-c2cccc(F)c2)sc1C(=O)N[C@H]1CCCNC1 [AZD7762] (partner 0.2 µM)
Procedure, shortened: (§1)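 Medians of duplicate plates are given as relative viability. That measure is the nuclei count in treated wells divided by the count in vehicle wells. Counts were taken on 4× images of lung cancer cell lines in 1536-well plates, 5 days after pin-tool dosing the day after seeding with one drug alone or a fixed anchor-drug dose plus five library-drug doses (not always all listed) in √10 steps.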

[2] = compound: O[C@H]1CC[C@H](Nc2ncc3nc(Nc4c(F)cc(F)cc4F)n([C@H]4CCOC4)c3n2)CC1 [Tanzisertib] + CC(=O)Nc1cccc(-n2c(=O)n(C3CC3)c(=O)c3c(Nc4ccc(I)cc4F)n(C)c(=O)c(C)c32)c1 [Trametinib] (partner 0.02 µM)
Procedure, shortened: as §1

[3] = compound: C1CNCCC1C2=CC(=NN2)C3=CC=NC=C3 + CS(=O)(=O)N1CCN(Cc2cc3nc(-c4cccc5[nH]ncc45)nc(N4CCOCC4)c3s2)CC1 [Pictilisib] (partner 1 µM)
Procedure, shortened: as §1

[4] = compound: O[C@H]1CC[C@H](Nc2ncc3nc(Nc4c(F)cc(F)cc4F)n([C@H]4CCOC4)c3n2)CC1 [Tanzisertib] + CC(=O)c1c(C)c2cnc(Nc3ccc(N4CCNCC4)cn3)nc2n(C2CCCC2)c1=O [Palbociclib] (partner 0.5 µM)
Procedure, shortened: as §1

| Cell Line | relative viability ([1]; first compound 0.08 µM) | relative viability ([1]; first compound 0.253 µM) | relative viability ([1]; first compound 0.8 µM) | relative viability ([1]; first compound 2.53 µM) | relative viability ([1]; first compound 8 µM) | relative viability ([2]; first compound 0.08 µM) | relative viability ([2]; first compound 0.253 µM) | relative viability ([2]; first compound 0.8 µM) | relative viability ([2]; first compound 2.53 µM) | relative viability ([2]; first compound 8 µM) | relative viability ([3]; first compound 0.08 µM) | relative viability ([3]; first compound 0.8 µM) | relative viability ([3]; first compound 2.53 µM) | relative viability ([3]; first compound 8 µM) | relative viability ([4]; first compound 0.08 µM) | relative viability ([4]; first compound 0.253 µM) | relative viability ([4]; first compound 0.8 µM) | relative viability ([4]; first compound 2.53 µM) | relative viability ([4]; first compound 8 µM) |
| --- | --- | --- | --- | --- | --- | --- | --- | --- | --- | --- | --- | --- | --- | --- | --- | --- | --- | --- | --- |
| HCC-827 | 0.206 | 0.227 | 0.19 | 0.164 | 0.147 | 0.556 | 0.552 | 0.481 | 0.411 | 0.265 | 0.981 | 0.918 | 0.919 | 0.891 | 0.533 | 0.468 | 0.475 | 0.429 | 0.24 |
| HOP-62 | 0.483 | 0.503 | 0.708 | 0.625 | 0.47 | 0.389 | 0.341 | 0.435 | 0.412 | 0.346 | 0.654 | 0.816 | 0.791 | 0.717 | 0.411 | 0.451 | 0.464 | 0.491 | 0.525 |
| IA-LM |  |  |  |  |  |  |  |  |  |  | 0.374 | 0.482 | 0.371 | 0.477 |  |  |  |  |  |
| LC-2-ad | 0.839 | 0.898 | 0.867 | 0.833 | 0.676 | 1 | 0.915 | 0.973 | 0.932 | 0.877 | 0.43 | 0.469 | 0.625 | 0.48 | 0.484 | 0.548 | 0.471 | 0.441 | 0.502 |
| LCLC-97TM1 | 0.302 | 0.334 | 0.207 | 0.264 | 0.151 | 0.236 | 0.227 | 0.234 | 0.172 | 0.172 | 0.275 | 0.241 | 0.283 | 0.175 | 0.222 | 0.243 | 0.215 | 0.204 | 0.229 |
| LCLC-103H | 0.877 | 0.735 | 0.769 | 0.8 | 0.754 | 0.661 | 0.744 | 0.703 | 0.691 | 0.71 | 0.499 | 0.61 | 0.617 | 0.64 | 0.519 | 0.466 | 0.486 | 0.456 | 0.465 |
| NCI-H520 |  |  |  |  |  | 0.734 | 0.724 | 0.814 | 0.776 | 0.646 | 0.277 | 0.324 | 0.293 | 0.351 | 0.274 | 0.201 | 0.227 | 0.227 | 0.239 |
| NCI-H522 | 1.1 | 0.891 | 0.839 | 0.955 | 0.886 | 0.766 | 0.535 | 0.688 | 0.826 | 0.69 |  |  |  |  | 1.05 | 0.984 | 0.959 | 1.13 | 0.899 |
| NCI-H596 | 1.04 | 1.04 | 1.12 | 0.995 | 1.04 | 0.789 | 0.796 | 0.89 | 0.73 | 0.776 | 0.407 | 0.425 | 0.392 | 0.407 |  |  |  |  |  |
| NCI-H661 |  |  |  |  |  | 0.684 | 0.574 | 0.55 | 0.647 | 0.54 | 0.516 | 0.422 | 0.522 | 0.445 | 0.424 | 0.406 | 0.423 | 0.386 | 0.415 |
| NCI-H1299 |  |  |  |  |  |  |  |  |  |  | 0.711 | 0.886 | 0.772 | 0.819 |  |  |  |  |  |
| NCI-H1563 |  |  |  |  |  |  |  |  |  |  | 0.575 | 0.662 | 0.592 | 0.611 |  |  |  |  |  |
| NCI-H1648 | 0.683 | 0.629 | 0.73 | 0.676 | 0.595 | 0.492 | 0.459 | 0.51 | 0.5 | 0.482 |  |  |  |  | 0.228 | 0.267 | 0.212 | 0.229 | 0.251 |
| NCI-H1650 |  |  |  |  |  | 0.458 | 0.689 | 0.609 | 0.532 | 0.415 | 0.353 | 0.701 | 0.632 | 0.63 | 0.297 | 0.326 | 0.404 | 0.351 | 0.314 |
| NCI-H1703 | 0.146 | 0.13 | 0.118 | 0.135 | 0.113 |  |  |  |  |  | 0.253 | 0.253 | 0.21 | 0.22 |  |  |  |  |  |
| NCI-H2009 |  |  |  |  |  | 0.316 | 0.274 | 0.274 | 0.247 | 0.21 | 0.81 | 0.859 | 0.872 | 0.859 | 0.201 | 0.209 | 0.263 | 0.278 | 0.187 |
| NCI-H2023 |  |  |  |  |  | 0.571 | 0.538 | 0.517 | 0.439 | 0.499 | 0.251 | 0.228 | 0.27 | 0.295 | 0.335 | 0.406 | 0.406 | 0.325 | 0.328 |
| NCI-H2228 |  |  |  |  |  | 0.581 | 0.34 | 0.806 | 0.362 | 0.259 | 0.388 | 0.483 | 0.409 | 0.544 | 1.12 | 0.818 | 0.684 | 0.741 | 0.655 |
| NCI-H2342 | 0.416 | 0.633 | 0.515 | 0.477 | 0.41 | 0.791 | 0.733 | 0.804 | 0.863 | 0.938 |  |  |  |  | 0.539 | 0.542 | 0.52 | 0.497 | 0.582 |
| SK-LU-1 |  |  |  |  |  | 0.576 | 0.507 | 0.528 | 0.54 | 0.471 | 0.515 | 0.499 | 0.686 | 0.644 | 0.455 | 0.388 | 0.37 | 0.384 | 0.389 |
| SK-MES-1 |  |  |  |  |  | 0.618 | 0.549 | 0.54 | 0.493 | 0.385 | 0.397 | 0.344 | 0.404 | 0.319 | 0.327 | 0.314 | 0.345 | 0.298 | 0.281 |
| SW 900 |  | 0.646 | 0.603 | 0.727 | 0.423 |  | 0.868 | 0.857 | 0.552 | 0.737 |  |  |  |  |  | 0.522 | 0.557 | 0.56 | 0.454 |
| SW 1573 |  |  |  |  |  | 0.555 | 0.514 | 0.547 | 0.521 | 0.456 | 0.516 | 0.533 | 0.496 | 0.509 | 0.444 | 0.455 | 0.333 | 0.456 | 0.316 |
